How the values were obtained:
barnyardgrass [1] = experiment: Test A pre-/postemergence herbicide test; format: in vivo, Echinochloa crus-galli
Outline: (§1)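 Pre: seeded sandy loam, directed soil spray, compound in non-phytotoxic solvent + surfactant. Post: 1–2-leaf plants (2–10 cm), sprayed to runoff. Greenhouse ~10 d; visual injury vs untreated, 0–100 scale.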

large crabgrass [2] = experiment: Test A pre-/postemergence herbicide test; format: in vivo, Digitaria sanguinalis
Outline: as §1

giant foxtail [3] = experiment: Test A pre-/postemergence herbicide test; format: in vivo, Setaria faberi
Outline: as §1

morningglory [4] = experiment: Test A pre-/postemergence herbicide test; format: in vivo, Ipomoea spp.
Outline: as §1

redroot pigweed = experiment: Test A pre-/postemergence herbicide test; format: in vivo, Amaranthus retroflexus
Outline: as §1

velvetleaf [5] = experiment: Test A pre-/postemergence herbicide test; format: in vivo, Abutilon theophrasti
Outline: as §1

barnyardgrass [6] = experiment: Test B pre-/postemergence herbicide test; format: in vivo, Echinochloa crus-galli
Outline: (§2)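 Evaluation is visual, comparing treated with control plants on a scale where 0 means no effect and 100 means full control. Treatments were preemergence, or postemergence on seedlings 2–18 cm tall, and held 13–15 days in the greenhouse.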

Surinam grass = experiment: Test B pre-/postemergence herbicide test; format: in vivo, Urochloa decumbens
Outline: (§3)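 Pre: seeds sown, then sprayed. Post: 1–4-leaf plants (2–18 cm) sprayed at the same time. Paddy: flooded, treated at 2-leaf stage. Formulation: non-phytotoxic solvent with surfactant. Greenhouse 13–15 days; visual 0–100 score relative to controls.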

cocklebur = experiment: Test B pre-/postemergence herbicide test; format: in vivo, Xanthium strumarium
Outline: as §2

corn = experiment: Test B pre-/postemergence herbicide test; format: in vivo, Zea mays
Outline: as §3

large crabgrass [7] = experiment: Test B pre-/postemergence herbicide test; format: in vivo, Digitaria sanguinalis
Outline: as §3

giant foxtail [8] = experiment: Test B pre-/postemergence herbicide test; format: in vivo, Setaria faberi
Outline: as §3

lambsquarters = experiment: Test B pre-/postemergence herbicide test; format: in vivo, Chenopodium album
Outline: as §3

morningglory [9] = experiment: Test B pre-/postemergence herbicide test; format: in vivo, Ipomoea coccinea
Outline: as §2

pigweed = experiment: Test B pre-/postemergence herbicide test; format: in vivo, Amaranthus retroflexus
Outline: as §3

velvetleaf [10] = experiment: Test B pre-/postemergence herbicide test; format: in vivo, Abutilon theophrasti
Outline: as §3

blackgrass = experiment: Test B postemergence herbicide test; format: in vivo, Alopecurus myosuroides; conditions: scale 0 (no effect) to 100 (complete control)
Outline: (§4)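 Each value is a visual 0–100 response rating taken against controls 13 to 15 days after treatment in the greenhouse. Plants received formulated chemical postemergence at the 1- to 4-leaf stage or, in flooded paddy, at the 2-leaf stage.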

wheat = experiment: Test B postemergence herbicide test; format: in vivo, Triticum aestivum; set-up: key to Wheat plant response rating: 0 = no effect, 100 = complete control; conditions: scale 0 (no effect) to 100 (complete control); for Wheat plant response rating: postemergence, visual rating
Outline: as §4

wild oat = experiment: Test B postemergence herbicide test; format: in vivo, Avena fatua; conditions: scale 0 (no effect) to 100 (complete control)
Outline: as §4

rice = experiment: Test B flooded paddy test; format: in vivo, Oryza sativa; conditions: 1000 g ai/ha, visual rating, scale 0 to 100 (0 no effect, 100 complete control), 13 to 15 days
Outline: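 Plants grow to 1- to 4-leaf stage (2–18 cm) for postemergence spraying, or to 2-leaf stage for the paddy test. Formulated compound is applied. Greenhouse holding lasts 13–15 days. Response is scored visually relative to controls, 0 no effect to 100 complete control; a dash means no result.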

[11] = tested on: small flower umbrella sedge; experiment: Test B flooded paddy test; format: in vivo, Cyperus difformis; conditions: 1000 g ai/ha, visual rating, scale 0 to 100 (0 no effect, 100 complete control), 13 to 15 days
Outline: as §4

ducksalad = experiment: Test B flooded paddy test; format: in vivo, Heteranthera limosa; conditions: 1000 g ai/ha, visual rating, scale 0 to 100 (0 no effect, 100 complete control), 13 to 15 days
Outline: as §4

barnyardgrass [12] = experiment: Test B flooded paddy test; format: in vivo, Echinochloa crus-galli; conditions: 1000 g ai/ha, visual rating, scale 0 to 100 (0 no effect, 100 complete control), 13 to 15 days
Outline: as §4

[13] = Postemergence, 500 g ai/ha, 0 to 100 scale, 0 no effect, 100 complete control
[14] = Postemergence, 2000 g ai/ha, 0 to 100 scale, 0 no effect, 100 complete control
[15] = Preemergence, 2000 g ai/ha, visual rating, 0 to 100 scale (0 no effect, 100 complete control)
[16] = preemergence, 500 g ai/ha, visual injury, 0 to 100 scale (0 no effect, 100 complete control)
[17] = 125 g ai/ha, 0 = no effect, 100 = complete control, preemergence
[18] = 500 g ai/ha, visual rating 0-100, 0 no effect, 100 complete control, preemergence
[19] = postemergence, 125 g ai/ha, visual rating, scale 0 (no effect) to 100 (complete control)
[20] = postemergence, 500 g ai/ha, visual rating, scale 0 (no effect) to 100 (complete control)
[21] = postemergence, 125 g ai/ha, visual rating
[22] = postemergence, 500 g ai/ha, visual rating
[23] = Preemergence, 500 g ai/ha, visual rating, 0 to 100 scale (0 no effect, 100 complete control)
[24] = Preemergence, 2000 g ai/ha, 0 to 100 scale, 0 no effect, 100 complete control
[25] = Postemergence, 125 g ai/ha, scale 0 (no effect) to 100 (complete control)
[26] = Postemergence, 500 g ai/ha, visual rating after 13 to 15 days, scale 0 (no effect) to 100 (complete control)
[27] = Preemergence, 500 g ai/ha, scale 0 to 100
[28] = preemergence, 125 g ai/ha, 0 to 100 scale, 0 is no effect, 100 is complete control
[29] = Postemergence, 500 g ai/ha, visual rating after 13 to 15 days

CC(=O)c1cccc(NC(=O)c2sc(C(C)(C)C)nc2C)c1 [Compound 196]
Barnyardgrass plant response rating (barnyardgrass [1]; [13]): 0 | Plant response rating, Barnyardgrass (barnyardgrass [1]; [14]): 30 | Barnyardgrass plant response rating (barnyardgrass [1]; [15]): 55 | Barnyardgrass plant response rating (barnyardgrass [1]; [16]): 15 | Crabgrass, Large plant response rating (large crabgrass [2]; [13]): 0 | Plant response rating, Crabgrass, Large (large crabgrass [2]; [14]): 0 | Crabgrass, Large plant response rating (large crabgrass [2]; [15]): 50 | Crabgrass, Large plant response rating (large crabgrass [2]; [16]): 25 | Foxtail, Giant plant response rating (giant foxtail [3]; [13]): 0 | Plant response rating, Foxtail, Giant (giant foxtail [3]; [14]): 0 | Foxtail, Giant plant response rating (giant foxtail [3]; [15]): 20 | Foxtail, Giant plant response rating (giant foxtail [3]; [16]): 0 | Morningglory plant response rating (morningglory [4]; [13]): 5 | Plant response rating, Morningglory (morningglory [4]; [14]): 0 | Morningglory plant response rating (morningglory [4]; [15]): 10 | Morningglory plant response rating (morningglory [4]; [16]): 0 | Pigweed plant response rating (redroot pigweed; [13]): 0 | Plant response rating, Pigweed (redroot pigweed; [14]): 0 | Pigweed plant response rating (redroot pigweed; [15]): 15 | Pigweed plant response rating (redroot pigweed; [16]): 0 | Velvetleaf plant response rating (velvetleaf [5]; [13]): 0 | Plant response rating, Velvetleaf (velvetleaf [5]; [14]): 0 | Velvetleaf plant response rating (velvetleaf [5]; [15]): 0 | Velvetleaf plant response rating (velvetleaf [5]; [16]): 0 | Barnyardgrass plant response rating (0 to 100 scale) (barnyardgrass [6]; [17]): 0 | Plant response rating, Barnyardgrass (barnyardgrass [6]; [18]): 40 | Barnyardgrass plant response rating (barnyardgrass [6]; [19]): 0 | Barnyardgrass plant response rating (barnyardgrass [6]; [20]): 30 | Surinam Grass plant response rating (0 to 100 scale) (Surinam grass; [17]): 0 | Plant response rating, Surinam Grass (Surinam grass; [18]): 0 | Surinam Grass plant response rating (Surinam grass; [19]): 0 | Surinam Grass plant response rating (Surinam grass; [20]): 40 | Cocklebur plant response rating (0 to 100 scale) (cocklebur; [17]): 0 | Plant response rating, Cocklebur (cocklebur; [18]): 0 | Cocklebur plant response rating (cocklebur; [19]): 0 | Cocklebur plant response rating (cocklebur; [20]): 20 | Corn plant response rating (0 to 100 scale) (corn; [17]): 0 | Plant response rating, Corn (corn; [18]): 0 | Corn plant response rating (corn; [19]): 0 | Corn plant response rating (corn; [20]): 10 | Crabgrass, Large plant response rating (0 to 100 scale) (large crabgrass [7]; [17]): 0 | Plant response rating, Crabgrass, Large (large crabgrass [7]; [18]): 100 | Crabgrass, Large plant response rating (large crabgrass [7]; [19]): 30 | Crabgrass, Large plant response rating (large crabgrass [7]; [20]): 30 | Foxtail, Giant plant response rating (0 to 100 scale) (giant foxtail [8]; [17]): 0 | Plant response rating, Foxtail, Giant (giant foxtail [8]; [18]): 0 | Foxtail, Giant plant response rating (giant foxtail [8]; [19]): 0 | Foxtail, Giant plant response rating (giant foxtail [8]; [20]): 0 | Lambsquarters plant response rating (0 to 100 scale) (lambsquarters; [17]): 0 | Plant response rating, Lambsquarters (lambsquarters; [18]): 0 | Lambsquarters plant response rating (lambsquarters; [19]): 0 | Lambsquarters plant response rating (lambsquarters; [20]): 30 | Morningglory plant response rating (0 to 100 scale) (morningglory [9]; [17]): 0 | Plant response rating, Morningglory (morningglory [9]; [18]): 0 | Morningglory plant response rating (morningglory [9]; [19]): 0 | Morningglory plant response rating (morningglory [9]; [20]): 0 | Pigweed plant response rating (0 to 100 scale) (pigweed; [17]): 0 | Plant response rating, Pigweed (pigweed; [18]): 0 | Pigweed plant response rating (pigweed; [19]): 10 | Pigweed plant response rating (pigweed; [20]): 30 | Velvetleaf plant response rating (0 to 100 scale) (velvetleaf [10]; [17]): 0 | Plant response rating, Velvetleaf (velvetleaf [10]; [18]): 20 | Velvetleaf plant response rating (velvetleaf [10]; [19]): 0 | Velvetleaf plant response rating (velvetleaf [10]; [20]): 0 | Blackgrass plant response rating (blackgrass; [21]): 0 | Blackgrass plant response rating (blackgrass; [22]): 0 | Wheat plant response rating (wheat; 125 g ai/ha): 0 | Wheat plant response rating (wheat; 500 g ai/ha): 0 | Oat, Wild plant response rating (wild oat; [21]): 0 | Oat, Wild plant response rating (wild oat; [22]): 0 | Rice plant response rating (rice): 0 | Sedge, Umbrella plant response rating [11]: 30 | Ducksalad plant response rating (ducksalad): 30 | Barnyardgrass plant response rating (barnyardgrass [12]): 20

CCN(CC)C(=O)c1cccc(NC(=O)c2cc(C(C)(C)C)nn2CCF)c1 [Compound 36]
Plant response rating, Barnyardgrass (barnyardgrass [1]; [13]): 35 | Plant response rating, Barnyardgrass (barnyardgrass [1]; [14]): 80 | Barnyardgrass plant response rating (barnyardgrass [1]; [23]): 45 | Barnyardgrass plant response rating (barnyardgrass [1]; [24]): 75 | Plant response rating, Crabgrass, Large (large crabgrass [2]; [13]): 10 | Plant response rating, Crabgrass, Large (large crabgrass [2]; [14]): 10 | Crabgrass, Large plant response rating (large crabgrass [2]; [23]): 10 | Crabgrass, Large plant response rating (large crabgrass [2]; [24]): 70 | Plant response rating, Foxtail, Giant (giant foxtail [3]; [13]): 20 | Plant response rating, Foxtail, Giant (giant foxtail [3]; [14]): 35 | Foxtail, Giant plant response rating (giant foxtail [3]; [23]): 5 | Foxtail, Giant plant response rating (giant foxtail [3]; [24]): 85 | Plant response rating, Morningglory (morningglory [4]; [13]): 10 | Plant response rating, Morningglory (morningglory [4]; [14]): 10 | Morningglory plant response rating (morningglory [4]; [23]): 20 | Morningglory plant response rating (morningglory [4]; [24]): 70 | Plant response rating, Pigweed (redroot pigweed; [13]): 80 | Plant response rating, Pigweed (redroot pigweed; [14]): 85 | Pigweed plant response rating (redroot pigweed; [23]): 95 | Pigweed plant response rating (redroot pigweed; [24]): 100 | Plant response rating, Velvetleaf (velvetleaf [5]; [13]): 15 | Plant response rating, Velvetleaf (velvetleaf [5]; [14]): 20 | Velvetleaf plant response rating (velvetleaf [5]; [23]): 20 | Velvetleaf plant response rating (velvetleaf [5]; [24]): 90 | Barnyardgrass plant response rating (barnyardgrass [6]; [25]): 20 | Plant response rating, Barnyardgrass (barnyardgrass [6]; [26]): 20 | Barnyardgrass plant response rating (barnyardgrass [6]; [27]): 80 | Plant response rating, Surinam Grass (Surinam grass; [26]): 10 | Surinam Grass plant response rating (Surinam grass; [27]): 50 | Plant response rating, Surinam Grass (Surinam grass; [28]): 10 | Cocklebur plant response rating (cocklebur; [25]): 30 | Plant response rating, Cocklebur (cocklebur; [26]): 50 | Cocklebur plant response rating (cocklebur; [27]): 0 | Corn plant response rating (corn; [27]): 10 | Crabgrass, Large plant response rating (large crabgrass [7]; [25]): 20 | Plant response rating, Crabgrass, Large (large crabgrass [7]; [26]): 20 | Crabgrass, Large plant response rating (large crabgrass [7]; [27]): 20 | Foxtail, Giant plant response rating (giant foxtail [8]; [25]): 20 | Plant response rating, Foxtail, Giant (giant foxtail [8]; [26]): 30 | Foxtail, Giant plant response rating (giant foxtail [8]; [27]): 30 | Plant response rating, Foxtail, Giant (giant foxtail [8]; [28]): 0 | Lambsquarters plant response rating (lambsquarters; [25]): 80 | Plant response rating, Lambsquarters (lambsquarters; [26]): 90 | Lambsquarters plant response rating (lambsquarters; [27]): 100 | Plant response rating, Lambsquarters (lambsquarters; [28]): 80 | Morningglory plant response rating (morningglory [9]; [27]): 10 | Plant response rating, Morningglory (morningglory [9]; [28]): 10 | Plant response rating, Pigweed (pigweed; [26]): 90 | Pigweed plant response rating (pigweed; [27]): 100 | Plant response rating, Pigweed (pigweed; [28]): 90 | Plant response rating, Velvetleaf (velvetleaf [10]; [26]): 40 | Velvetleaf plant response rating (velvetleaf [10]; [27]): 50 | Plant response rating, Velvetleaf (velvetleaf [10]; [28]): 20 | Blackgrass plant response rating (blackgrass; Postemergence, 125 g ai/ha): 10 | Plant response rating, Blackgrass (blackgrass; [29]): 20 | Plant response rating, Wheat (wheat; [29]): 30 | Oat, Wild plant response rating (wild oat; Postemergence, 125 g ai/ha): 20 | Plant response rating, Oat, Wild (wild oat; [29]): 20 | Rice plant response rating (rice): 40 | Sedge, Umbrella plant response rating [11]: 60 | Ducksalad plant response rating (ducksalad): 90 | Barnyardgrass plant response rating (barnyardgrass [12]): 70

Reference: US20060069132A1, “Azolecarboxamide herbicides” (priority 2004, published 2006)
